The source of these data is patent US20240150375A1, “MACROCYCLIC COMPOUNDS AND USES THEREOF” (Theseus Pharmaceuticals, Inc., priority 2021, published 2024).

The target of assay [1] is Ba/F3 EGFR-Del19/T790M (Homo sapiens, UniProt P00533, T790M, cells depend on it, form not given). As to the kind of experiment: Ba/F3 viability assay (CellTiter-Glo), EGFR-Del19/T790M (DT). The format is cell-based. The following applies: Ba/F3 EGFR-Del19/T790M anti-proliferation; read-out: BAF3 DT IC50. The text has this: (§1) Inhibition of cell proliferation can be studied using Ba/F3 viability assays, including the Promega CellTiter-Glo cell viability assay. This assay can be used to study the effect of compounds described herein in the following assays: (1) Ba/F3 Parental; (2) Ba/F3 EGFR-Del19/T790M; (3); Ba/F3 EGFR-Del19/C797S; and (4) Ba/F3 EGFR-Del119/T790M/C797S.
Sequence of Ba/F3 EGFR-Del19/T790M (P00533 with tags, fused parts or gaps DEL746-750/T790M, form open): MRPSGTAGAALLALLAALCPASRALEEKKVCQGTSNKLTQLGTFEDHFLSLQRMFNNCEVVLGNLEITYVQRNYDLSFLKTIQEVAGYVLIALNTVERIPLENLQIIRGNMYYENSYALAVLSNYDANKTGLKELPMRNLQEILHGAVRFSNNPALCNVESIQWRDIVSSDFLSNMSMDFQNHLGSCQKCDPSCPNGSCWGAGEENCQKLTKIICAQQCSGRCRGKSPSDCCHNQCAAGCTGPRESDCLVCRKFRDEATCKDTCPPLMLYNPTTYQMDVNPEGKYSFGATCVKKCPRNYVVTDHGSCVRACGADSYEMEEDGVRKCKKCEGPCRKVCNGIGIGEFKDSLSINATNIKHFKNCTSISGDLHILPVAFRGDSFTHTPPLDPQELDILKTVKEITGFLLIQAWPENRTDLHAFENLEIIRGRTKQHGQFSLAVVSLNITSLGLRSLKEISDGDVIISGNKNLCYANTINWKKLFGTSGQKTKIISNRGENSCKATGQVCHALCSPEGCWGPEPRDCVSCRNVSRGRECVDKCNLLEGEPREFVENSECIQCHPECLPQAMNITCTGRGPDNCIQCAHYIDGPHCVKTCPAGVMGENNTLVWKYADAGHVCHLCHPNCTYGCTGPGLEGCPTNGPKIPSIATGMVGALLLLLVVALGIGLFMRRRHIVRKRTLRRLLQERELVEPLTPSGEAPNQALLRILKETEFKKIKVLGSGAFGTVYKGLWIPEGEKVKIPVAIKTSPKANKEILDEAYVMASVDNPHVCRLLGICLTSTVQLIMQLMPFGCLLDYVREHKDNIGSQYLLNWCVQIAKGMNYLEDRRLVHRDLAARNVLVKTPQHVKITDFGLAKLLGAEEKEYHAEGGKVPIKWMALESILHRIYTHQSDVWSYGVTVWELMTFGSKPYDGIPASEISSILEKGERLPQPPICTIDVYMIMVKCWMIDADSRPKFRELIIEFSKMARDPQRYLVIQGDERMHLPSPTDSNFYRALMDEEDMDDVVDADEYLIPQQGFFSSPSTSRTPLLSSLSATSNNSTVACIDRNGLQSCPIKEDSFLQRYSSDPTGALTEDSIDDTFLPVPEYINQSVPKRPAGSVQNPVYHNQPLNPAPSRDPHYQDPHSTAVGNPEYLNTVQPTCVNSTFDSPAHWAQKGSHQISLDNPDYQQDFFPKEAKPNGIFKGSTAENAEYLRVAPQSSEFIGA
(§2) One hundred thirty six compounds were studied using the kinase (EGFR) and BA/F3 assays described herein, with more than 60% of the tested compounds providing IC50<50 nM values in all six assays. Accordingly, compounds of the invention are a new general class of kinase inhibitors, including potent inhibitors of EGFR mutants.
(§3) Exemplary kinase inhibition (Kinase) and anti-proliferation activity (Ba/F3) data are shown in Table 1 for certain compounds of the invention and are categorized according to the below legend.

The target of assay [2] is Ba/F3 EGFR-Del19/T790M/C797S (Homo sapiens, UniProt P00533, T790M/C797S, cells depend on it, form not given). As to the kind of experiment: Ba/F3 viability assay (CellTiter-Glo), EGFR-Del19/T790M/C797S (DTC). The following applies: Ba/F3 EGFR-Del19/T790M/C797S anti-proliferation; read-out: BAF3 DTC IC50. The format is cell-based.
Excerpt: as §1, §2, §3

Assay [3] has as its target EGFR^L858R/T790M/C797S (Homo sapiens, UniProt P00533, C797S/L858R/T790M). The assay can be described thus: HTRF KinEASE-TK in vitro kinase assay, EGFR L858R/T790M/C797S (LTC). The class given is biochemical. The following applies: EGFR L858R/T790M/C797S kinase inhibition.
Excerpt: (§4) The biological activity of compounds described herein can be studied according to standard methods known in the art. Methods can be used to study inhibition of EGFR, including mutant forms of EGFR comprising L858R, T790M, C797S, and/or Del19 mutations, or any combination thereof (e.g., L858R single, double, or triple mutants). Exemplary, non-limiting methods are described herein.
(§5) Assays using an in vitro kinase assay kit (HTRF KinEASE-TK kit) can be used to study the inhibitory activity of compounds described herein with respect to EGFR mutants such as ECFR^L858R, EGFR^L858R/T790M, and EGFR^L858R/T790M/C797S.
as §2, §3

The target of assay [4] is EGFR^L858R (Homo sapiens, UniProt P00533, L858R). The assay can be described thus: HTRF KinEASE-TK in vitro kinase assay, EGFR L858R (L). The class given is biochemical. As to conditions: EGFR L858R kinase inhibition.
Sequence of EGFR^L858R (P00533 25-1210 L858R): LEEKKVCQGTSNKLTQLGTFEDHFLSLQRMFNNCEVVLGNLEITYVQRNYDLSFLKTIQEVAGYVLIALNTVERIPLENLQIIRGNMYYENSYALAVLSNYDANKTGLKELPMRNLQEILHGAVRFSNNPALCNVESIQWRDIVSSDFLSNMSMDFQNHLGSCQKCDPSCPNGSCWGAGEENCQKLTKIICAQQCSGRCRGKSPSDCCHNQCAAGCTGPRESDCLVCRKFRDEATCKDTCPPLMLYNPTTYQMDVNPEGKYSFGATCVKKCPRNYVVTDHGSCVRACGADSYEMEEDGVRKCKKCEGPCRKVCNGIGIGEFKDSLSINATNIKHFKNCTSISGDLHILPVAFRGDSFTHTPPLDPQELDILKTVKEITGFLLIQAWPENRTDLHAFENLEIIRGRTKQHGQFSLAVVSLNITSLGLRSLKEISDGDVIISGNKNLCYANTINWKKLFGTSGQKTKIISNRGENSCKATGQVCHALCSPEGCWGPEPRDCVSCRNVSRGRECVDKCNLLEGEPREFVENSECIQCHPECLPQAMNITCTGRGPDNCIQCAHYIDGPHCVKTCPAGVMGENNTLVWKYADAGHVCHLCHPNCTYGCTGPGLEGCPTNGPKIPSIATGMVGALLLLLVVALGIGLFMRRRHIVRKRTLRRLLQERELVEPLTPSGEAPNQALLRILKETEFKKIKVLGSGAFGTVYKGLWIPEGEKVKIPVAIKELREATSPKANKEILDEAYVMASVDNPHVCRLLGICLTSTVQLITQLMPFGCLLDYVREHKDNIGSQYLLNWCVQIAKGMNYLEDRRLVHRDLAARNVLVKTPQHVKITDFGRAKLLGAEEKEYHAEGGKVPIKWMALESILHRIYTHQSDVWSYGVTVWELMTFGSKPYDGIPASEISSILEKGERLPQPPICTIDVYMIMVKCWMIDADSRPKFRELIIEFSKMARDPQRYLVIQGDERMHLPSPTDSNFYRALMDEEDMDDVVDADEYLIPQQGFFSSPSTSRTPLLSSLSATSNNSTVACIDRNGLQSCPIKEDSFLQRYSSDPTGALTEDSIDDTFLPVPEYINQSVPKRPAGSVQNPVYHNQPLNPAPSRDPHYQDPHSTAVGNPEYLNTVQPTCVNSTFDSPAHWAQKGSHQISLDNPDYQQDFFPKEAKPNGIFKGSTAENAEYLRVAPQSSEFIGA
Excerpt: as §4, §5, §2, §3

Assay [5] addresses Ba/F3 EGFR-Del19/C797S (Homo sapiens, UniProt P00533, C797S, cells depend on it, form not given). As to the kind of experiment: Ba/F3 viability assay (CellTiter-Glo), EGFR-Del19/C797S (DC). The format is cell-based. The following applies: Ba/F3 EGFR-Del19/C797S anti-proliferation; read-out: BAF3 DC IC50.
Excerpt: as §1, §2, §3

Assay [6] deals with EGFR^L858R/T790M (Homo sapiens, UniProt P00533, L858R/T790M). As to the kind of experiment: HTRF KinEASE-TK in vitro kinase assay, EGFR L858R/T790M (LT). The class given is biochemical. As to conditions: EGFR L858R/T790M kinase inhibition.
Sequence of EGFR^L858R/T790M (P00533 25-1210 T790M/L858R): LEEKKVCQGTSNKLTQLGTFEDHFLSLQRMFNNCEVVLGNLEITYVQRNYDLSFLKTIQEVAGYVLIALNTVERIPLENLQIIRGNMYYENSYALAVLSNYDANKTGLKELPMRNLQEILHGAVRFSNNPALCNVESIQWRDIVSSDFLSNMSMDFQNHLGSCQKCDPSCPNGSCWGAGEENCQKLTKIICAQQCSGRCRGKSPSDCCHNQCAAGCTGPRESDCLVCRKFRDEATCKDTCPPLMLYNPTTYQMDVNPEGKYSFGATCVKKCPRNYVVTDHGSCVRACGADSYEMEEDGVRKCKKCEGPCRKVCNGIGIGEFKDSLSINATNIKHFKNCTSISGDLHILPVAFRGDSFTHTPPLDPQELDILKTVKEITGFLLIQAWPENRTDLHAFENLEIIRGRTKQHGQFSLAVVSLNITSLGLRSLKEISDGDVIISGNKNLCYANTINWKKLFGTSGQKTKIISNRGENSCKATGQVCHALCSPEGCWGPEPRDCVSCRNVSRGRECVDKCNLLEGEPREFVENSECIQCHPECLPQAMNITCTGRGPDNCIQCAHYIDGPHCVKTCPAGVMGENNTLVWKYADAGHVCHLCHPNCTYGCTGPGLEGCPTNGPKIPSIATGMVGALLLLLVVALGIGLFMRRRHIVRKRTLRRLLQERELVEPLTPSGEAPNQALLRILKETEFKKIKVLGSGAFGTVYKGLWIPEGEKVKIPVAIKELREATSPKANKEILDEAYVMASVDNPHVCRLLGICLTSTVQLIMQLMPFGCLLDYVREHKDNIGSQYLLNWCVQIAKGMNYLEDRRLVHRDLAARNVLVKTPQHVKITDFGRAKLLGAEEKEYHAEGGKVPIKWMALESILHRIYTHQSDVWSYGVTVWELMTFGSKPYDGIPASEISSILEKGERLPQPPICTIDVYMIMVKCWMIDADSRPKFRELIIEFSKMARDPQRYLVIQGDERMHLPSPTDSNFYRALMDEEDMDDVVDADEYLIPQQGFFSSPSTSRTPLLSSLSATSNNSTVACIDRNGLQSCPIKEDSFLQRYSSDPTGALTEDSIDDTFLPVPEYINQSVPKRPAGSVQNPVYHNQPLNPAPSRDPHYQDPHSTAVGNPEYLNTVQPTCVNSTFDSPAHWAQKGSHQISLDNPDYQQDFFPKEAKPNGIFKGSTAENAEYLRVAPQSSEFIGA
Excerpt: as §4, §5, §2, §3

Structures are written as SMILES. Some results are limits rather than exact numbers.

Sequence of Ba/F3 EGFR-Del19/C797S (P00533 with tags, fused parts or gaps DEL746-750/C797S, form open): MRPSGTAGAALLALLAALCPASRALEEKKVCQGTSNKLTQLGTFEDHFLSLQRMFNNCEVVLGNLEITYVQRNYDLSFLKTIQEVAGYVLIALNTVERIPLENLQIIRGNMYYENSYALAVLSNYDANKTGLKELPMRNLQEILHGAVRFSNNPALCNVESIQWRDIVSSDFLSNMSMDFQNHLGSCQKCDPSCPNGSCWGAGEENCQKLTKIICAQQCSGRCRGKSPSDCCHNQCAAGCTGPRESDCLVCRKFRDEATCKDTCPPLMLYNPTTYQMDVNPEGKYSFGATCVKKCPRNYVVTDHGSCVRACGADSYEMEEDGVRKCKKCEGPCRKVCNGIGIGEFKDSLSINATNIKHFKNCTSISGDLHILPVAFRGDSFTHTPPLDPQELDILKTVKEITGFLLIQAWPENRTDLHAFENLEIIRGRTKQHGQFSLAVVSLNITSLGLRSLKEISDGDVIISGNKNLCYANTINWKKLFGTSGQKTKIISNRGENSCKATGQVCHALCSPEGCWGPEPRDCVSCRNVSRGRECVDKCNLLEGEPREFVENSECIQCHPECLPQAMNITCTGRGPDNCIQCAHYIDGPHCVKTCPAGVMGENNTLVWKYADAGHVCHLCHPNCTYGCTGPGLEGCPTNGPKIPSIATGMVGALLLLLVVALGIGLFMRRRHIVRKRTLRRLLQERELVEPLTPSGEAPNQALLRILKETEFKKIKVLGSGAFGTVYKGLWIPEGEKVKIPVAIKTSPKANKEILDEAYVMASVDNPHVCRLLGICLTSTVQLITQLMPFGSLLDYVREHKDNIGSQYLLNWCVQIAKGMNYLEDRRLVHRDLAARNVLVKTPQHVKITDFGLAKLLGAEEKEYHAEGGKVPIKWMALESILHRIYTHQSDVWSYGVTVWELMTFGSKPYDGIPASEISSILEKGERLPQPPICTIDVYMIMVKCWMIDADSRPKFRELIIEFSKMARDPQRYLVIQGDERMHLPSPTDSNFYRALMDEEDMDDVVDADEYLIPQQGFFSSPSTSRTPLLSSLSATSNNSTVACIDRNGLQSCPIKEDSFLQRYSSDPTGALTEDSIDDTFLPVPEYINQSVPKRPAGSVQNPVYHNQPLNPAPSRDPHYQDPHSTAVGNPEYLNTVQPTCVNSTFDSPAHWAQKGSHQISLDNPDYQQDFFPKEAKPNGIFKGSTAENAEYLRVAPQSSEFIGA

`Cc1nn(C2CCN(CCF)CC2)cc1-c1cnc2cc1O[C@@H](C)CCOc1c(cnn1C)-c1nccc(n1)N2` [(85)]: the GI50 in assay [1], in assay [2] and in assay [5] was below 50 nM throughout. Moreover, the IC50 in assay [3], in assay [4] and in assay [6] was below 50 nM throughout.

For `C[C@H]1CCOc2c(cnn2C)-c2nccc(n2)Nc2cc(c(-c3ccnn3CCN3CCOCC3)cn2)O1` [(89)], the GI50 in assay [1], in assay [2] and in assay [5] was at least 1000 nM throughout. The IC50 in assay [3] is 100 to 1000 nM; in assay [4] it was at least 1000 nM; in assay [6], below 50 nM.

In the case of `C[C@H]1CCOc2c(cnn2C)-c2nccc(n2)Nc2cc(c(-c3ncc(CN4CCN(C)CC4)s3)cn2)O1` [(92)], the GI50 in assay [1], in assay [2] and in assay [5] was below 50 nM in each case. The half-inhibitory concentration (IC50) in assay [3], in assay [4] and in assay [6] was below 50 nM throughout.

With `C[C@H]1CCOc2c(cnn2C)-c2nccc(n2)Nc2cc(c(-c3ccc(CN4CCN(C)CC4)n3C)cn2)O1` [(103)], the GI50 in assay [1], in assay [2] and in assay [5] was 100 to 1000 nM in each case. The IC50 in assay [3] is below 50 nM; in assay [4], 100 to 1000 nM; in assay [6] it was below 50 nM.

`C[C@H]1CCOc2c(cnn2C)-c2nccc(n2)Nc2cc(c(-c3ncc(CN4CCOCC4)s3)cn2)O1` [(115)]: the GI50 in assay [1], in assay [2] and in assay [5] was below 50 nM in each case. In addition, the IC50 in assay [3], in assay [4] and in assay [6] was below 50 nM in each case.

As to `C[C@H]1CCOc2c(cnn2C)-c2nccc(n2)Nc2cc(c(-c3cnn(CCCN(C)C)c3)cn2)O1` [(123)], the GI50 in assay [1], in assay [2] and in assay [5] was below 50 nM each time. In addition, the IC50 in assay [3], in assay [4] and in assay [6] was below 50 nM throughout.

For `C[C@H]1CCOc2c(cnn2C)-c2nccc(n2)Nc2cc(c(-c3ccc(CN4CCOCC4)cc3)cn2)O1` [(124)], the GI50 in assay [1], in assay [2] and in assay [5] was below 50 nM each time. For the same compound, the IC50 in assay [3], in assay [4] and in assay [6] was below 50 nM throughout.

As for `C[C@H]1CCOc2c(cnn2C)-c2nccc(n2)Nc2cc(c(-c3cc(CN4CCN(C)CC4)n(C)c3)cn2)O1` [(127), (10S)-5,10-dimethyl-13-[1-methyl-5-[(4-methylpiperazin-1-yl)methyl]pyrrol-3-yl]-7,11-dioxa-4,5,15,17,21,22-hexazatetracyclo[16.3.1.1^12,16.0^2,6]tricosa-1(22),2(6),3,12(23),13,15,18,20-octaene], the GI50 in assay [1], in assay [2] and in assay [5] was below 50 nM throughout. Moreover, the IC50 in assay [3], in assay [4] and in assay [6] was below 50 nM in each case.

Turning to `C[C@H]1CCOc2c(cnn2C)-c2nccc(n2)Nc2cc(c(-c3cnc(N4CCN(C)CC4)c(OCC(F)(F)F)c3)cn2)O1` [(128)], the GI50 in assay [1] is 50 to 100 nM; in assay [2], below 50 nM; in assay [5] it was 50 to 100 nM. Moreover, the IC50 in assay [3], in assay [4] and in assay [6] was below 50 nM in each case.

With `C[C@H]1CCOc2c(cnn2C)-c2nccc(n2)Nc2cc(c(-c3ccc(N(C)CCN(C)C)cc3)cn2)O1` [(133)], the GI50 in assay [1], in assay [2] and in assay [5] was below 50 nM in each case. For the same compound, the half-inhibitory concentration (IC50) in assay [3], in assay [4] and in assay [6] was below 50 nM in each case.

Turning to `COc1cc(-c2cnc3cc2O[C@@H](C)CCOc2c(cnn2C)-c2nccc(n2)N3)cnc1N1CCN(C)CC1` [(137)], the GI50 in assay [1], in assay [2] and in assay [5] was below 50 nM in each case. Further, the IC50 in assay [3], in assay [4] and in assay [6] was below 50 nM each time.

On to `C[C@H]1CCOc2c(cnn2C)-c2nccc(n2)Nc2cc(c(-c3ccc(N(C)CCN(C)C)nc3)cn2)O1` [(138)], for which the GI50 was 50 to 100 nM in assay [1], below 50 nM in assay [2] and 50 to 100 nM in assay [5]. Also, the IC50 in assay [3], in assay [4] and in assay [6] was below 50 nM throughout.

On to `C[C@H]1CCOc2c(cnn2C)-c2nccc(n2)Nc2cc(c(-c3cnn(C4CCNCC4)c3)cn2)O1` [(141)], for which the GI50 in assay [1], in assay [2] and in assay [5] was below 50 nM in each case. Moreover, the IC50 in assay [3], in assay [4] and in assay [6] was below 50 nM each time.

As to `C[C@H]1CCOc2c(cnn2C)-c2nccc(n2)Nc2cc(c(-c3cc(CN4CCOCC4)n(C)n3)cn2)O1` [(144)], the GI50 in assay [1], in assay [2] and in assay [5] was below 50 nM in each case. The IC50 in assay [3], in assay [4] and in assay [6] was below 50 nM in each case.

For the compound `COC(=O)c1cc(-c2cnc3cc2O[C@@H](C)CCOc2c(cnn2C)-c2nccc(n2)N3)n(C)c1` [(145)], the GI50 in assay [1], in assay [2] and in assay [5] was 100 to 1000 nM each time. Also, the IC50 in assay [3] was below 50 nM; in assay [4], 100 to 1000 nM; in assay [6] it was below 50 nM.

For `C[C@H]1CCOc2c(cnn2C)-c2nccc(n2)Nc2cc(c(-c3ccc(CN4CCN(C)CC4)c(OCC(F)(F)F)c3)cn2)O1` [(146)], the GI50 in assay [1], in assay [2] and in assay [5] was below 50 nM each time. The concentration for half-maximal inhibition (IC50) in assay [3], in assay [4] and in assay [6] was below 50 nM in each case.

Regarding `COc1cc(-c2cnc3cc2O[C@@H](C)CCOc2c(cnn2C)-c2nccc(n2)N3)ccc1CN1CCN(C)CC1` [(147)], the GI50 in assay [1], in assay [2] and in assay [5] was below 50 nM in each case. Further, the IC50 in assay [3], in assay [4] and in assay [6] was below 50 nM in each case.

Regarding `C[C@H]1CCOc2c(cnn2C)-c2nccc(n2)Nc2cc(c(-c3cccc(NCCN(C)C)c3)cn2)O1` [(148)], the GI50 in assay [1], in assay [2] and in assay [5] was below 50 nM throughout. The IC50 in assay [3], in assay [4] and in assay [6] was below 50 nM in each case.

Consider `COc1cc(CN2CCN(C)CC2)ccc1-c1cnc2cc1O[C@@H](C)CCOc1c(cnn1C)-c1nccc(n1)N2` [(149)], for which the GI50 in assay [1] was 50 to 100 nM; in assay [2], below 50 nM; in assay [5], below 50 nM. For the same compound, the IC50 in assay [3], in assay [4] and in assay [6] was below 50 nM in each case.

For `CCOc1cc(-c2cnc3cc2O[C@@H](C)CCOc2c(cnn2C)-c2nccc(n2)N3)ccc1CN1CCN(C)CC1` [(150)], the GI50 in assay [1], in assay [2] and in assay [5] was below 50 nM in each case. The IC50 in assay [3], in assay [4] and in assay [6] was below 50 nM in each case.

On to `C[C@H]1CCOc2c(cnn2C)-c2nccc(n2)Nc2cc(c(Cl)cn2)O1` [(151), (10S)-13-chloro-5,10-dimethyl-7,11-dioxa-4,5,15,17,21,22-hexazatetracyclo[16.3.1.112,16.02,6]tricosa-1(22),2(6),3,12(23),13,15,18,20-octaene], for which the GI50 in assay [1], in assay [2] and in assay [5] was 100 to 1000 nM each time. Further, the figures for the 50% inhibitory concentration (IC50) in assay [3], in assay [4] and in assay [6] were below 50 nM, 50 to 100 nM and below 50 nM, respectively.

For `C[C@H]1CCOc2c(cnn2C)-c2nccc(n2)Nc2cc(c(-c3ccc(N4CCN(C)CC4)nc3)cn2)O1` [(152)], the GI50 in assay [1], in assay [2] and in assay [5] was below 50 nM throughout. The IC50 in assay [3], in assay [4] and in assay [6] was below 50 nM throughout.
